The record followed here is PubChem BioAssay AID2060904 (Molecular Pharmacology Branch, DTP, NCI, 2025).
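Note: spheroids exposed to compound for seven days before viability readout.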

One assay relates to 349418-098-R-PDC complex spheroid viability. Kind of assay: Anticancer human tumor 349418-098-R-PDC patient-derived lung adenocarcinoma cell line growth inhibition [RAS]. The following applies: second compound 0.00316 µM; first compound 3.16 µM; active compounds read low. In outline: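 Multi-cell-type spheroids: tumor cells plus HUVEC endothelial cells and mesenchymal stem cells. RAS-pathway inhibitors were combined with targeted agents, each dosed in half-log steps down from clinical Cmax, or from 10 microM when Cmax was unknown.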
The viability, T/C is the result in the treated group divided by that in the control group, in per cent. Consider `Cc1nc(N2CCC3(CC2)COC(C)C3N)c(CO)nc1Sc1ccnc(N)c1Cl` (configuration not stated) + C=CC(=O)N1CCN(c2nc(OCC3CCCN3C)nc3c(F)c(-c4nc(N)cc(C)c4C(F)(F)F)c(Cl)cc23)C(C)C1, for which the viability, T/C was 81.7%.
Same read-out and setting: in the case of `NC1c2ccccc2OC12CCN(c1cnc3c(N4CCCc5ncccc54)n[nH]c3n1)CC2` (configuration not stated) + C=CC(=O)N1CCN(c2nc(OCC3CCCN3C)nc3c(F)c(-c4nc(N)cc(C)c4C(F)(F)F)c(Cl)cc23)C(C)C1 it was 102%.

Staying with this assay, now noted: second compound 0.00316 µM; first compound 10 µM; active compounds read low.
Regarding `CCC(CC)c1cc(NC2CCC(N)C2)n2nccc2n1` (configuration not stated) + C=CC(=O)N1CCN(c2nc(OCC3CCCN3C)nc3c(F)c(-c4nc(N)cc(C)c4C(F)(F)F)c(Cl)cc23)C(C)C1, the viability, T/C was 2.99%.
Still for that read-out and setting: in the case of `Cc1nc(N2CCC3(CC2)COC(C)C3N)c(CO)nc1Sc1ccnc(N)c1Cl` (configuration not stated) + C=CC(=O)N1CCN(c2nc(OCC3CCCN3C)nc3c(F)c(-c4nc(N)cc(C)c4C(F)(F)F)c(Cl)cc23)C(C)C1 it was 102%; in that of `NC1c2ccccc2OC12CCN(c1cnc3c(N4CCCc5ncccc54)n[nH]c3n1)CC2` (configuration not stated) + C=CC(=O)N1CCN(c2nc(OCC3CCCN3C)nc3c(F)c(-c4nc(N)cc(C)c4C(F)(F)F)c(Cl)cc23)C(C)C1, 55.8%.

Staying with this assay, now noted: second compound 0.01 µM; first compound 0.0316 µM; active compounds read low.
Take `CCC(CC)c1cc(NC2CCC(N)C2)n2nccc2n1` (configuration not stated) + C=CC(=O)N1CCN(c2nc(OCC3CCCN3C)nc3c(F)c(-c4nc(N)cc(C)c4C(F)(F)F)c(Cl)cc23)C(C)C1: the viability, T/C was 110%.
For the compound `Cc1nc(N2CCC3(CC2)COC(C)C3N)c(CO)nc1Sc1ccnc(N)c1Cl` (configuration not stated) + C=CC(=O)N1CCN(c2nc(OCC3CCCN3C)nc3c(F)c(-c4nc(N)cc(C)c4C(F)(F)F)c(Cl)cc23)C(C)C1, the viability, T/C was 78.4%.
`NC1c2ccccc2OC12CCN(c1cnc3c(N4CCCc5ncccc54)n[nH]c3n1)CC2` (configuration not stated) + C=CC(=O)N1CCN(c2nc(OCC3CCCN3C)nc3c(F)c(-c4nc(N)cc(C)c4C(F)(F)F)c(Cl)cc23)C(C)C1: the viability, T/C was 113%.

Still in this assay, the particulars now being: second compound 0.01 µM; first compound 0.1 µM; active compounds read low.
Take `CCC(CC)c1cc(NC2CCC(N)C2)n2nccc2n1` (configuration not stated) + C=CC(=O)N1CCN(c2nc(OCC3CCCN3C)nc3c(F)c(-c4nc(N)cc(C)c4C(F)(F)F)c(Cl)cc23)C(C)C1: the viability, T/C was 86.8%.
On the same count and under the same terms, then `Cc1nc(N2CCC3(CC2)COC(C)C3N)c(CO)nc1Sc1ccnc(N)c1Cl` (configuration not stated) + C=CC(=O)N1CCN(c2nc(OCC3CCCN3C)nc3c(F)c(-c4nc(N)cc(C)c4C(F)(F)F)c(Cl)cc23)C(C)C1, with 80.5%.
On the same count and under the same terms, then `NC1c2ccccc2OC12CCN(c1cnc3c(N4CCCc5ncccc54)n[nH]c3n1)CC2` (configuration not stated) + C=CC(=O)N1CCN(c2nc(OCC3CCCN3C)nc3c(F)c(-c4nc(N)cc(C)c4C(F)(F)F)c(Cl)cc23)C(C)C1, with 91.4%.

Still in this assay, the particulars now being: second compound 0.01 µM; first compound 0.316 µM; active compounds read low.
Consider `CCC(CC)c1cc(NC2CCC(N)C2)n2nccc2n1` (configuration not stated) + C=CC(=O)N1CCN(c2nc(OCC3CCCN3C)nc3c(F)c(-c4nc(N)cc(C)c4C(F)(F)F)c(Cl)cc23)C(C)C1, for which the viability, T/C was 84.8%.
For the compound `Cc1nc(N2CCC3(CC2)COC(C)C3N)c(CO)nc1Sc1ccnc(N)c1Cl` (configuration not stated) + C=CC(=O)N1CCN(c2nc(OCC3CCCN3C)nc3c(F)c(-c4nc(N)cc(C)c4C(F)(F)F)c(Cl)cc23)C(C)C1, the viability, T/C is 92.5%.
With `NC1c2ccccc2OC12CCN(c1cnc3c(N4CCCc5ncccc54)n[nH]c3n1)CC2` (configuration not stated) + C=CC(=O)N1CCN(c2nc(OCC3CCCN3C)nc3c(F)c(-c4nc(N)cc(C)c4C(F)(F)F)c(Cl)cc23)C(C)C1, the viability, T/C was 110%.

The assay is the same for the next values; noted with them: second compound 0.01 µM; first compound 1 µM; active compounds read low.
Turning to `CCC(CC)c1cc(NC2CCC(N)C2)n2nccc2n1` (configuration not stated) + C=CC(=O)N1CCN(c2nc(OCC3CCCN3C)nc3c(F)c(-c4nc(N)cc(C)c4C(F)(F)F)c(Cl)cc23)C(C)C1, the viability, T/C was 53.8%.
Regarding `Cc1nc(N2CCC3(CC2)COC(C)C3N)c(CO)nc1Sc1ccnc(N)c1Cl` (configuration not stated) + C=CC(=O)N1CCN(c2nc(OCC3CCCN3C)nc3c(F)c(-c4nc(N)cc(C)c4C(F)(F)F)c(Cl)cc23)C(C)C1, the viability, T/C is 92.5%.
On the same count and under the same terms, in the case of `NC1c2ccccc2OC12CCN(c1cnc3c(N4CCCc5ncccc54)n[nH]c3n1)CC2` (configuration not stated) + C=CC(=O)N1CCN(c2nc(OCC3CCCN3C)nc3c(F)c(-c4nc(N)cc(C)c4C(F)(F)F)c(Cl)cc23)C(C)C1 it was 72.9%.

The same assay, now with this note: second compound 0.01 µM; first compound 3.16 µM; active compounds read low.
On to `CCC(CC)c1cc(NC2CCC(N)C2)n2nccc2n1` (configuration not stated) + C=CC(=O)N1CCN(c2nc(OCC3CCCN3C)nc3c(F)c(-c4nc(N)cc(C)c4C(F)(F)F)c(Cl)cc23)C(C)C1, for which the viability, T/C was 3.18%.
For `Cc1nc(N2CCC3(CC2)COC(C)C3N)c(CO)nc1Sc1ccnc(N)c1Cl` (configuration not stated) + C=CC(=O)N1CCN(c2nc(OCC3CCCN3C)nc3c(F)c(-c4nc(N)cc(C)c4C(F)(F)F)c(Cl)cc23)C(C)C1, the viability, T/C is 104%.
As to `NC1c2ccccc2OC12CCN(c1cnc3c(N4CCCc5ncccc54)n[nH]c3n1)CC2` (configuration not stated) + C=CC(=O)N1CCN(c2nc(OCC3CCCN3C)nc3c(F)c(-c4nc(N)cc(C)c4C(F)(F)F)c(Cl)cc23)C(C)C1, the viability, T/C was 93.9%.

Still in this assay, the particulars now being: second compound 0.01 µM; first compound 10 µM; active compounds read low.
Regarding `CCC(CC)c1cc(NC2CCC(N)C2)n2nccc2n1` (configuration not stated) + C=CC(=O)N1CCN(c2nc(OCC3CCCN3C)nc3c(F)c(-c4nc(N)cc(C)c4C(F)(F)F)c(Cl)cc23)C(C)C1, the viability, T/C is 2.92%.
For the compound `Cc1nc(N2CCC3(CC2)COC(C)C3N)c(CO)nc1Sc1ccnc(N)c1Cl` (configuration not stated) + C=CC(=O)N1CCN(c2nc(OCC3CCCN3C)nc3c(F)c(-c4nc(N)cc(C)c4C(F)(F)F)c(Cl)cc23)C(C)C1, the viability, T/C is 98.3%.
As for `NC1c2ccccc2OC12CCN(c1cnc3c(N4CCCc5ncccc54)n[nH]c3n1)CC2` (configuration not stated) + C=CC(=O)N1CCN(c2nc(OCC3CCCN3C)nc3c(F)c(-c4nc(N)cc(C)c4C(F)(F)F)c(Cl)cc23)C(C)C1, the viability, T/C was 68.5%.

Still in this assay, the particulars now being: second compound 0.0316 µM; first compound 0.0316 µM; active compounds read low.
Take `CCC(CC)c1cc(NC2CCC(N)C2)n2nccc2n1` (configuration not stated) + C=CC(=O)N1CCN(c2nc(OCC3CCCN3C)nc3c(F)c(-c4nc(N)cc(C)c4C(F)(F)F)c(Cl)cc23)C(C)C1: the viability, T/C was 85.3%.
Regarding `Cc1nc(N2CCC3(CC2)COC(C)C3N)c(CO)nc1Sc1ccnc(N)c1Cl` (configuration not stated) + C=CC(=O)N1CCN(c2nc(OCC3CCCN3C)nc3c(F)c(-c4nc(N)cc(C)c4C(F)(F)F)c(Cl)cc23)C(C)C1, the viability, T/C was 84.3%.
On the same count and under the same terms, in the case of `NC1c2ccccc2OC12CCN(c1cnc3c(N4CCCc5ncccc54)n[nH]c3n1)CC2` (configuration not stated) + C=CC(=O)N1CCN(c2nc(OCC3CCCN3C)nc3c(F)c(-c4nc(N)cc(C)c4C(F)(F)F)c(Cl)cc23)C(C)C1 it was 114%.

The same assay, now with this note: second compound 0.0316 µM; first compound 0.1 µM; active compounds read low.
Take `CCC(CC)c1cc(NC2CCC(N)C2)n2nccc2n1` (configuration not stated) + C=CC(=O)N1CCN(c2nc(OCC3CCCN3C)nc3c(F)c(-c4nc(N)cc(C)c4C(F)(F)F)c(Cl)cc23)C(C)C1: the viability, T/C was 114%.
Take `Cc1nc(N2CCC3(CC2)COC(C)C3N)c(CO)nc1Sc1ccnc(N)c1Cl` (configuration not stated) + C=CC(=O)N1CCN(c2nc(OCC3CCCN3C)nc3c(F)c(-c4nc(N)cc(C)c4C(F)(F)F)c(Cl)cc23)C(C)C1: the viability, T/C was 107%.
Consider `NC1c2ccccc2OC12CCN(c1cnc3c(N4CCCc5ncccc54)n[nH]c3n1)CC2` (configuration not stated) + C=CC(=O)N1CCN(c2nc(OCC3CCCN3C)nc3c(F)c(-c4nc(N)cc(C)c4C(F)(F)F)c(Cl)cc23)C(C)C1, for which the viability, T/C is 100%.

Staying with this assay, now noted: second compound 0.0316 µM; first compound 0.316 µM; active compounds read low.
Turning to `CCC(CC)c1cc(NC2CCC(N)C2)n2nccc2n1` (configuration not stated) + C=CC(=O)N1CCN(c2nc(OCC3CCCN3C)nc3c(F)c(-c4nc(N)cc(C)c4C(F)(F)F)c(Cl)cc23)C(C)C1, the viability, T/C was 88%.
In the case of `Cc1nc(N2CCC3(CC2)COC(C)C3N)c(CO)nc1Sc1ccnc(N)c1Cl` (configuration not stated) + C=CC(=O)N1CCN(c2nc(OCC3CCCN3C)nc3c(F)c(-c4nc(N)cc(C)c4C(F)(F)F)c(Cl)cc23)C(C)C1, the viability, T/C was 87.1%.
As for `NC1c2ccccc2OC12CCN(c1cnc3c(N4CCCc5ncccc54)n[nH]c3n1)CC2` (configuration not stated) + C=CC(=O)N1CCN(c2nc(OCC3CCCN3C)nc3c(F)c(-c4nc(N)cc(C)c4C(F)(F)F)c(Cl)cc23)C(C)C1, the viability, T/C is 67%.
